Assay results taken from patent US20170128366A1, “PHARMACEUTICAL FORMULATIONS OF CHELATING AGENTS AS A METAL REMOVAL TREATMENT SYSTEM” (ZONEONE PHARMA, INC., priority 2013, published 2017).

Assays:
[1] = cited from earlier work
[2] = in vivo, cited from earlier work
[3] = patients who take deferasirox; cited from earlier work
[4] = Active loading of DFO or doxorubicin into liposomes without membrane modifier, effect of temperature; type: physicochemical; conditions: 10 min, pH 6.5
Description: Active loading of DFO using no ethanol (or other membrane modifier) was done using liposomes composed of either a fluid-phase lipid (egg PC) or a gel-phase lipid (HSPC), specifically, egg PC liposomes (3:2 Chol, 0.5 M ammonium sulfate, 90 nm) or HSPC liposomes (3:2 Chol, 250 mM ammonium sulfate, 90 nm) were remote loaded with DFO at a temperature range of 40-120° C. (pH 8.0) for either 10 min or 30 min. […] The target drug to lipid ratio was 170 g DFO/mol PL. After the DFO was loaded the tubes were rapidly cooled to room temperature. Unencapsulated DFO was removed by dialysis at 4° C., and drug/PL concentrations were analyzed by HPLC as described in paragraph [0108].
This experiment was done in the absence of a chemical modifier. Liposomes were composed of either a fluid-phase lipid (egg PC) or a gel-phase lipid (HSPC), specifically, egg PC liposomes (3:2 Chol, 0.5 M ammonium sulfate, 90 nm) or HSPC liposomes (3:2 Chol, 0.25 M ammonium sulfate, 90 nm) were remote loaded with DFO or doxorubicin at a temperature range between 40-120° C. for 10 min. Doxorubicin concentration in the loading solution was 5 mg/mL and a target drug to lipid ratio of 170 g DFO/mol PL. DFO was loaded at pH 8 while doxorubicin was loaded at pH 6.5. Unencapsulated drug was removed by dialysis at 4° C., and drug/PL concentrations were analyzed by HPLC as described in paragraph [0108].

| active loading efficiency ([4]; HSPC liposomes (3:2 Chol, 0.25 M ammonium sulfate), 60° C. and above) | active loading ([4]; HSPC liposomes, 40° C.) | active loading ([4]; egg PC liposomes (3:2 Chol, 0.5 M ammonium sulfate), 30-110° C.) | SMILES | water solubility [1] | absorption after oral administration / from the gastro-intestinal tract [2] | clearance from the circulation [2] | solubility [1] | risk of renal and hepatic failure [3] |
| --- | --- | --- | --- | --- | --- | --- | --- | --- |
|  |  |  | CC(=O)N(O)CCCCCNC(=O)CCC(=O)N(O)CCCCCNC(=O)CCC(=O)N(O)CCCCCN [DFO, Deferoxamine] | very water-soluble | poorly absorbed | rapidly cleared |  |  |
|  |  |  | O=C(O)c1ccc(-n2nc(-c3ccccc3O)nc2-c2ccccc2O)cc1 [deferasirox] | very low water-solubility | well absorbed | cleared from the circulation slowly | less than 2 mg/mL | higher risk |
| > 90% | loaded very poorly | high efficiency | COc1cccc2c1C(=O)c1c(O)c3c(c(O)c1C2=O)C[C@@](O)(C(=O)CO)C[C@@H]3O[C@H]1C[C@H](N)[C@H](O)[C@H](C)O1 [doxorubicin] |  |  |  |  |  |
